Where two headings read alike, the source gives them in different places.
Tests used:
His6-GSK-3β = molecular target: T1, His6-GSK-3β (Homo sapiens, UniProt P49841); assay: Inhibition of His6-GSK-3β kinase activity (ELISA-based format, time-resolved fluorescence readout); assay type: biochemical; conditions: read-out: GSK3β IC50
T1 construct: made in house; host or cells: Sf21 insect cells (baculovirus)
Method in brief: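 Plate-bound recombinant GST-Rb substrate was phosphorylated for 30 min at 37° C by baculovirus-expressed His6-GSK-3β (200 ng/ml) at 20 μM ATP, 10 mM MgCl2, 2.5% DMSO. Europium time-resolved fluorescence of anti-phospho-Ser780 Rb signal gave inhibition, fitted to IC50.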

CDK5/GST-p25 = molecular target: T2, CDK5/GST-p25 (Homo sapiens, UniProt Q00535); assay: Inhibition of CDK5/GST-p25 kinase activity (ELISA with time-resolved fluorescence readout); assay type: biochemical
T2 construct: The final construct, encoding for full-length human CDK5; made in house; host or cells: Sf21 insect cells (baculovirus co-infection)
Method in brief: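 The substrate, GST-Rb(773-928), was immobilised on plates and phosphorylated for 20 min at 37 °C by 2 ng/ml CDK5/GST-p25 in HEPES pH 7.2 with 10 µM ATP and 10 mM MgCl2. Both proteins were human and co-expressed in insect cells. Ser-780 phosphorylation was read by europium time-resolved fluorescence and converted to IC50.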

T2 sequence (Q00535 whole entry): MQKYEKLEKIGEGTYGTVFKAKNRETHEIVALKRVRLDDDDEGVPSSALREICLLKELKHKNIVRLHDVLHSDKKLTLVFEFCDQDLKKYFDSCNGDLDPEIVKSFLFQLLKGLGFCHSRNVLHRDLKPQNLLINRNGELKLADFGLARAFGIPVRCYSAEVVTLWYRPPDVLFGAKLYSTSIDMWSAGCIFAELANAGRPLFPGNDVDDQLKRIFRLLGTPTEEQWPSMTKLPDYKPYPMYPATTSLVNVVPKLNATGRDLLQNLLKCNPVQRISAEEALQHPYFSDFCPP
T2 sequence (Q15078 108-307 partner limits assumed): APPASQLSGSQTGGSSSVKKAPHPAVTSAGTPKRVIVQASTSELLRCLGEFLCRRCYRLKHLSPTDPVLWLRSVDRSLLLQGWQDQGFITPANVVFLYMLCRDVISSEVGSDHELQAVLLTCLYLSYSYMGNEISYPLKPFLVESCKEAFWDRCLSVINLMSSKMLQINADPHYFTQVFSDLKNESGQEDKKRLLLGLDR
T1 sequence (P49841 2-419): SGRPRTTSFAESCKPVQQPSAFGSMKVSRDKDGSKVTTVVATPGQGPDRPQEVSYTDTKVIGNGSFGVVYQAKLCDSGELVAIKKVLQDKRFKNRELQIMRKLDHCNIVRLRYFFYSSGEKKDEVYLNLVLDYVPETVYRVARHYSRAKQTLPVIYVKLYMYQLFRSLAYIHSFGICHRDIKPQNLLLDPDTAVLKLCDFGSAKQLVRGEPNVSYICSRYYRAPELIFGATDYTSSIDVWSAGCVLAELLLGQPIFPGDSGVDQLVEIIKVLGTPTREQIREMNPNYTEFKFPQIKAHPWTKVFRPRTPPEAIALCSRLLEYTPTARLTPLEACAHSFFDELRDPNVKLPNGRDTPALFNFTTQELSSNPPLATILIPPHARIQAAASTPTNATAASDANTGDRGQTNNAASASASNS

Row | Structure (SMILES) | IC50 (His6-GSK-3β; class symbols) [nM] | melting point | IC50 (CDK5/GST-p25; class symbols) [nM] | IC50 (His6-GSK-3β; numeric bounds) [nM] | inhibition at 10 µM (CDK5/GST-p25) [%] | IC50 (CDK5/GST-p25; numeric bounds) [nM]
1 | CC(C)Cn1cc2c(C3C(=O)Nc4ccc(Cl)cc43)nc(Cl)nc2n1 (stereo not drawn) [Example 261, 5-Chloro-3-(6-chloro-2-isobutyl-2H-pyrazolo[3,4-d]pyrimidin-4-yl)-1,3-dihydro-indol-2-one] | – | 284 °C (dec.) | > 10000 | > 3000 | – | –
2 | CN(C)CCNc1nc(C2C(=O)Nc3ccc(Cl)cc32)c2cn(C3CCCC3)nc2n1 (stereo not drawn) [Example 376, 5-Chloro-3-[2-cyclopentyl-6-(2-dimethylamino-ethylamino)-2H-pyrazolo [3,4-d]pyrimidin-4-yl]-1,3-dihydro-indol-2-one] | 300 to 3000 | 145 to 148 °C | > 10000 | – | – | –
3 | O=C1Nc2ccc(F)cc2C1c1ncnc2c1cnn2C1CCCCC1 (stereo not drawn) [Example 72, 3-(1-Cyclohexyl-1H-pyrazolo[3,4-d]pyrimidin-4-yl)-5-fluoro-1,3-dihydro-indol-2-one] | > 10000 | 282 to 286 °C | > 10000 | – | – | –
4 | O=C1Nc2c(cc([N+](=O)[O-])cc2[N+](=O)[O-])C1c1ncnc2nn(C3CCCC3)cc12 (stereo not drawn) [Example 43, 3-(2-Cyclopentyl-2H-pyrazolo[3,4-d]pyrimidin-4-yl)-5,7-dinitro-1,3-dihydro-indol-2-one] | 300 to 3000 | > 300 °C | 300 to 3000 | – | – | –
5 | COCCn1cc2c(C3C(=O)Nc4ccc(Br)cc43)nc(NCCN(C)C)nc2n1 (stereo not drawn) [Example 229, 5-Bromo-3-[6-(2-dimethylamino-ethylamino)-2-(2-methoxy-ethyl)-2H-pyrazolo[3,4-d]pyrimdin-4-yl]-1,3-dihydro-indol-2-one] | 300 to 3000 | 291 to 292 °C | 300 to 3000 | – | – | –
6 | O=C1Nc2cc(F)ccc2C1c1ncnc2nn(C3CCCC3)cc12 (stereo not drawn) [Example 41, 3-(2-Cyclopentyl-2H-pyrazolo[3,4-d]pyrimidin-4-yl)-6-fluoro-1,3-dihydro-indol-2-one] | 300 to 3000 | 258 to 263 °C | 300 to 3000 | – | – | –
7 | CCOCCn1cc2c(C3C(=O)Nc4ccc(Cl)cc43)nc(NCCN3CCOCC3)nc2n1 (stereo not drawn) [Example 217, 5-Chloro-3-[2-(2-ethoxy-ethyl)-6-(2-morpholin-4-yl-ethylamino)-2H-pyrazolo [3,4-d]pyrimidin-4-yl]-1,3-dihydro-indol-2-one] | < 300 | 293 to 294 °C | < 300 | – | – | –
8 | COCCN(CCOC)c1nc(C2C(=O)Nc3ccc(C#N)cc32)c2cn(C3CCCC3)nc2n1 (stereo not drawn) [Example 167, 3-{6-[bis-(2-methoxyethyl)amino]-2-cyclopentyl-2H-pyrazolo[3,4-d]pyrimidin-4-yl}-2-oxo-2,3-dihydro-1H-indole-5-carbonitrile] | < 300 | 248.5 to 249 °C | – | – | – | > 3000
9 | O=C1Nc2ccc([N+](=O)[O-])cc2C1c1ncnc2c1cnn2C1CCCC1 (stereo not drawn) [Example 57, 3-(1-Cyclopentyl-1H-pyrazolo[3,4-d]pyrimidin-4-yl)-5-nitro-1,3-dihydro-indol-2-one] | 300 to 3000 | > 300 °C (dec.) | > 10000 | – | – | –
10 | CC(C)CNc1nc(C2C(=O)Nc3ccccc32)c2cn(C3CCCC3)nc2n1 (stereo not drawn) [Example 244, 3-(2-Cyclopentyl-6-isobutylamino-2H-pyrazolo[3,4-d]pyrimidin-4-yl)-1,3-dihydro-indol-2-one] | – | 280 to 282 °C | > 10000 | > 1000 | – | –
11 | O=C1Nc2ccc(F)c(F)c2C1c1ncnc2nn(C3CCCC3)cc12 (stereo not drawn) [Example 42, 3-(2-Cyclopentyl-2H-pyrazolo[3,4-d]pyrimidin-4-yl)-4,5-difluoro-1,3-dihydro-indol-2-one] | 300 to 3000 | 280 to 284 °C | 300 to 3000 | – | – | –
12 | CCOCCn1cc2c(C3C(=O)Nc4ccc(Br)cc43)nc(NC[C@H](C)O)nc2n1 (stereo partly drawn) [Example 238, 5-Bromo-3-[2-(2-ethoxy-ethyl)-6-((S)-2-hydroxy-propylamno)-2H-pyrazolo[3,4-d]pyrimidin-4-yl]-1,3-dihydro-indol-2-one] | < 300 | 297 to 299 °C | < 300 | – | – | –
13 | O=C1Nc2ccc(F)cc2C1c1ncnc2c1cnn2C1CCCC1 (stereo not drawn) [Example 65, 3-(1-Cyclopentyl-1H-pyrazolo[3,4-d]pyrimidin-4-yl)-5-fluoro-1,3-dihydro-indol-2-one] | > 10000 | 254 to 257 °C | > 10000 | – | – | –
14 | O=C1Nc2cc(Cl)ccc2C1c1ncnc2c1cnn2C1CCCC1 (stereo not drawn) [Example 59, 6-Chloro-3-(1-cyclopentyl-1H-pyrazolo[3,4-d]pyrimidin-4-yl)-1,3-dihydro-indol-2-one] | 300 to 3000 | 288 to 291 °C | > 10000 | – | – | –

The next lines start with the values.

Row | IC50 (His6-GSK-3β; class symbols) [nM] | melting point | IC50 (CDK5/GST-p25; class symbols) [nM] | IC50 (His6-GSK-3β; numeric bounds) [nM] | inhibition at 10 µM (CDK5/GST-p25) [%] | IC50 (CDK5/GST-p25; numeric bounds) [nM] | Structure (SMILES)
15 | < 300 | 290 to 293 °C | 300 to 3000 | – | – | – | Cl.NCCNc1nc(C2C(=O)Nc3ccc(C(F)(F)F)cc32)c2cn(C3CCCC3)nc2n1 (stereo not drawn) [Example 252, 3-[6-(2-Amino-ethylamino)-2-cyclopentyl-2H-pyrazolo[3,4-d]pyrimidin-4-yl]-5-trifluoromethyl-1,3-dihydroindol-2-one hydrochloride salt]
16 | < 300 | > 300 °C | < 300 | – | – | – | CCCn1cc2c(C3C(=O)Nc4ccc(Br)cc43)nc(NCc3ccncc3)nc2n1 (stereo not drawn) [Example 190, 5-Bromo-3-{2-propyl-6-[(pyridine-4-ylmethyl)-amino]-2H-pyrazolo[3,4-d]pyrimidin-4-yl}-1,3-dihydro-indol-2-one]
17 | < 300 | > 300 °C | < 300 | – | – | – | COCCn1cc2c(C3C(=O)Nc4ccc(Br)cc43)nc(NC[C@@H](C)O)nc2n1 (stereo partly drawn) [Example 231, 5-Bromo-3-[6-((R)-2-hydroxy-propylamino)-2-(2-methoxy-ethyl)-2H-pyrazolo[3,4-d]pyrimidin-4-yl]-1,3-dihydro-indol-2-one]
18 | < 300 | 286 to 290 °C | < 300 | – | – | – | CCCn1cc2c(C3C(=O)Nc4ccc(Br)cc43)nc(NCCCN(C)C)nc2n1 (stereo not drawn) [Example 198, 5-Bromo-3-[6-(3-dimethylamino-propylamino)-2-propyl-2H-pyrazolo [3,4-d]pyrimidin-4-yl]-1,3-dihydro-indol-2-one]
19 | < 300 | 272 to 276 °C | < 300 | – | – | – | CCCn1cc2c(C3C(=O)Nc4ccc(Br)cc43)nc(NCCN)nc2n1 (stereo not drawn) [Example 200, 3-[6-(2-Amino-ethylamino)-2-propyl-2H-pyrazolo [3,4-d]pyrimidin-4-yl]-5-bromo-1,3-dihydro-indol-2-one]
20 | < 300 | > 300 °C | – | – | 76 | – | CC(C)Nc1nc(C2C(=O)Nc3ccc(C#N)cc32)c2cn(C3CCCC3)nc2n1 (stereo not drawn) [Example 150, 3-(2-cyclopentyl-6-isopropylamino-2H-pyrazolo [3,4-d]pyrimidin-4-yl)-2-oxo-2,3-dihydro-1H-indole-5-carbonitrile]
21 | < 300 | 247 to 251 °C | < 300 | – | – | – | CCOCCn1cc2c(C3C(=O)Nc4ccc(Br)cc43)nc(NCCN(C)C)nc2n1 (stereo not drawn) [Example 237, 5-Bromo-3-[6-(2-dimethylamino-ethylamino)-2-(2-ethoxy-ethyl)2H-pyrazolo[3,4-d]pyrimidin-4-yl]-1,3-dihydro-indol-2-one]
